Data: ChEMBL document CHEMBL1201862, “PubChem BioAssay data set” (2004)
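Cultured in 96-well plates, cells were exposed to test compound for 48 hours across five concentrations. Here, GI50 denotes the concentration required for 50% inhibition of growth.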 Activity calls are given as the source filed them. No stated cut-off is given here; in the data, active = GI50 up to about 1.1 µM and inactive = higher.

Key:
Assay in all cases: NCI-60 cell line screen, 48 h
DMS-114 = test system: DMS-114
SR = test system: SR
OVCAR-8 = test system: OVCAR-8
SF-295 = test system: SF-295
HOP-18 = test system: HOP-18
NCI-H460 = test system: NCI-H460
HCT-116 = test system: HCT-116
HCT-15 = test system: HCT-15
NCI-H23 = test system: NCI-H23
ACHN = test system: ACHN
SK-MEL-5 = test system: SK-MEL-5
CAKI-1 = test system: CAKI-1
HT-29 = test system: HT-29
EKVX = test system: EKVX
HL-60 = test system: HL-60
NCI-H522 = test system: NCI-H522
K562 = test system: K562
OVCAR-3 = test system: OVCAR-3
HOP-62 = test system: HOP-62
HCC 2998 = test system: HCC 2998
SF-268 = test system: SF-268
OVCAR-4 = test system: OVCAR-4
SF-539 = test system: SF-539
SW-620 = test system: SW-620
OVCAR-5 = test system: OVCAR-5
SNB-19 = test system: SNB-19
UACC-257 = test system: UACC-257
KM12 = test system: KM12
COLO 205 = test system: COLO 205
LOX IMVI = test system: LOX IMVI
TK-10 = test system: TK-10
DMS-273 = test system: DMS-273
RPMI-8226 = test system: RPMI-8226
XF498 = test system: XF498
SK-MEL-2 = test system: SK-MEL-2
A549 = test system: A549
SNB-75 = test system: SNB-75
Malme-3M = test system: Malme-3M
786-0 = test system: 786-0
MOLT-4 = test system: MOLT-4
NCI-H226 = test system: NCI-H226
SK-MEL-28 = test system: SK-MEL-28
SNB-78 = test system: SNB-78
M19-MEL = test system: M19-MEL
CCRF-CEM = test system: CCRF-CEM
UO-31 = test system: UO-31
SN12C = test system: SN12C
M14 = test system: M14
MCF7 = test system: MCF7
DLD-1 = test system: DLD-1
U-251 = test system: U-251
KM-20L2 = test system: KM-20L2
UACC-62 = test system: UACC-62
SK-OV-3 = test system: SK-OV-3
NCI/ADR-RES = test system: NCI/ADR-RES
RXF 393 = test system: RXF 393
A498 = test system: A498
HOP-92 = test system: HOP-92
IGROV-1 = test system: IGROV-1

## Cc1cc([N+](=O)[O-])c(C)c2c1[nH]c1ccc(/C(CCC3CCCC3)=N\N)cc12
DMS-114
  GI50: 17.6 µM (inactive)
SR
  GI50: 19.6 µM (inactive)
OVCAR-8
  GI50: 23.1 µM (inactive)
SF-295
  GI50: 18.8 µM (inactive)
HOP-18
  GI50: 11 µM (inactive)
NCI-H460
  GI50: 18 µM (inactive)
HCT-116
  GI50: 9.89 µM (inactive)
HCT-15
  GI50: 14.2 µM
NCI-H23
  GI50: 14.7 µM (inactive)
ACHN
  GI50: 15.5 µM (inactive)
SK-MEL-5
  GI50: 18.2 µM (inactive)
CAKI-1
  GI50: > 10 µM (inactive)
HT-29
  GI50: 24 µM (inactive)
EKVX
  GI50: 17.4 µM (inactive)
HL-60
  GI50: > 10 µM (inactive)
NCI-H522
  GI50: 16.4 µM (inactive)
K562
  GI50: 10.3 µM (inactive)
OVCAR-3
  GI50: 20 µM (inactive)
HOP-62
  GI50: 18.4 µM (inactive)
HCC 2998
  GI50: 17 µM (inactive)
SF-268
  GI50: 18.9 µM (inactive)
OVCAR-4
  GI50: 27.4 µM (inactive)
SF-539
  GI50: 17.3 µM (inactive)
SW-620
  GI50: 16.5 µM (inactive)
OVCAR-5
  GI50: > 10 µM (inactive)
SNB-19
  GI50: 17.7 µM (inactive)
UACC-257
  GI50: 20 µM (inactive)
KM12
  GI50: 16 µM (inactive)
COLO 205
  GI50: 17.5 µM (inactive)
LOX IMVI
  GI50: 15.4 µM (inactive)
TK-10
  GI50: 14.2 µM (inactive)
DMS-273
  GI50: 20.2 µM (inactive)
RPMI-8226
  GI50: 20.3 µM (inactive)
XF498
  GI50: 14.7 µM (inactive)
SK-MEL-2
  GI50: 16.2 µM (inactive)
A549
  GI50: 17.6 µM (inactive)
SNB-75
  GI50: 22 µM (inactive)
Malme-3M
  GI50: 17.5 µM (inactive)
786-0
  GI50: 14.7 µM (inactive)
MOLT-4
  GI50: 11.9 µM (inactive)
NCI-H226
  GI50: 20.8 µM (inactive)
SK-MEL-28
  GI50: 16.9 µM (inactive)
SNB-78
  GI50: 36.5 µM (inactive)
M19-MEL
  GI50: 19 µM (inactive)
CCRF-CEM
  GI50: 10.4 µM (inactive)
UO-31
  GI50: 15.3 µM (inactive)
SN12C
  GI50: 14.8 µM (inactive)
M14
  GI50: 17.6 µM (inactive)

## CSc1nc(NC2OC(CO)C(O)C(O)C2O)c(N)c(=O)[nH]1 (stereo unspecified)
MCF7
  GI50: > 100 µM (inactive)
DMS-114
  GI50: > 100 µM (inactive)
OVCAR-8
  GI50: > 100 µM (inactive)
SF-295
  GI50: > 100 µM (inactive)
HOP-18
  GI50: > 100 µM (inactive)
NCI-H460
  GI50: > 100 µM (inactive)
DLD-1
  GI50: > 100 µM (inactive)
HCT-116
  GI50: > 100 µM (inactive)
HCT-15
  GI50: > 100 µM
NCI-H23
  GI50: > 100 µM (inactive)
U-251
  GI50: > 100 µM (inactive)
SK-MEL-5
  GI50: > 100 µM (inactive)
KM-20L2
  GI50: > 100 µM (inactive)
UACC-62
  GI50: > 100 µM (inactive)
HT-29
  GI50: > 100 µM (inactive)
EKVX
  GI50: > 100 µM (inactive)
HL-60
  GI50: > 100 µM (inactive)
NCI-H522
  GI50: > 100 µM (inactive)
K562
  GI50: > 100 µM (inactive)
OVCAR-3
  GI50: > 100 µM (inactive)
HOP-62
  GI50: > 100 µM (inactive)
HCC 2998
  GI50: > 100 µM (inactive)
SF-268
  GI50: > 100 µM (inactive)
OVCAR-4
  GI50: > 100 µM (inactive)
SF-539
  GI50: > 100 µM (inactive)
SW-620
  GI50: > 100 µM (inactive)
OVCAR-5
  GI50: > 100 µM (inactive)
SNB-19
  GI50: > 100 µM (inactive)
UACC-257
  GI50: > 100 µM (inactive)
SK-OV-3
  GI50: > 100 µM (inactive)
NCI/ADR-RES
  GI50: > 100 µM (inactive)
KM12
  GI50: > 100 µM (inactive)
COLO 205
  GI50: > 100 µM (inactive)
LOX IMVI
  GI50: > 100 µM (inactive)
DMS-273
  GI50: > 100 µM (inactive)
RXF 393
  GI50: > 100 µM (inactive)
RPMI-8226
  GI50: > 100 µM (inactive)
XF498
  GI50: > 100 µM (inactive)
A498
  GI50: > 100 µM (inactive)
SK-MEL-2
  GI50: > 100 µM (inactive)
A549
  GI50: > 100 µM (inactive)
HOP-92
  GI50: > 100 µM (inactive)
SNB-75
  GI50: > 100 µM (inactive)
Malme-3M
  GI50: > 100 µM (inactive)
MOLT-4
  GI50: > 100 µM (inactive)
NCI-H226
  GI50: > 100 µM (inactive)
SK-MEL-28
  GI50: > 100 µM (inactive)
SNB-78
  GI50: > 100 µM (inactive)
M19-MEL
  GI50: > 100 µM (inactive)
CCRF-CEM
  GI50: > 100 µM (inactive)
UO-31
  GI50: > 100 µM (inactive)
SN12C
  GI50: > 100 µM (inactive)
IGROV-1
  GI50: > 100 µM (inactive)
